Consider three molecules from patent US20210161894A1, “Compositions and Methods for Modulating Liver Endothelial Cell Fenestrations” (priority 2017, published 2021).

Data set [1] concerns lipid rafts and fenestrations of LSECs. The data set can be described thus: 3D-SIM study of lipid rafts and fenestrations. The format is cell-based. The text has this: Sieve plates containing fenestrations are intercalated between thickened areas of membrane (lipid rafts).
The subject of data set [2] is fenestrations. The settings on record: young mice; cited from earlier work.
For data set [3], the system named is actin cytoskeleton of LSECs. Kind of data set: dSTORM imaging of the actin cytoskeleton. The data set is classed as cell-based. The settings on record: young mice. The method, then: dSTORM imaging was performed using an in-house microscope. LSECs were prepared for dSTORM by washing twice with PBS and fixation with 4% paraformaldehyde for 30 mins. Then LSECs were washed twice with PBS, permeabilised with Triton-X for 90 secs, blocked with 5% bovine serum albumin for 1 hour, and stained with Alexa Flour phalloidin 488 (1:40) for 20 min prior to imaging. Cells were washed using PBS with 0.1% Tween and placed in OxEA buffer (30) for dSTORM visualisation and image capture. The dSTORM used 488 and 647 nm excitation from diode-pumped lasers (Coherent Inc, CA, USA). Excitation was delivered via a 1.49NA 60× oil-immersion TIRF objective (Olympus Australia, AUS). Fluorescence was captured on two separate sCMOS cameras (Imaging Development Systems GmbH, Germany). Data was collected for up to 40,000 images at around 75 fps. 5-8 whole cell images were collected by a blinded observer for each treatment dosage and processed using rapidSTORM open source software (Wolter et al. Nat Methods 9: 1040, 2012.). Each image was examined for all sieve plates and actin structures. Densitometry measurements were performed using 5-8 dSTORM images with data analysis performed using Image J software (NIH, MD, USA).

Data set [4] relates to LSEC fenestrations. The data set can be described thus: SEM of LSEC fenestrations after drug treatments (Example 2, FIGS. 1-6). The format is cell-based, mice. The settings on record: for change in fenestration porosity / change in fenestration frequency: Cytochalasin D 0.5 μg/ml, Amlodipine 20 ng/ml; for change in fenestration frequency: Bosentan 0.1 μM, Sildenafil 300 ng/ml; for sieve plates and fenestration density on SEM images: young and old mice. The text has this:
Young and old C57B16 mice (n=3 young mice, age 3-4 and n=3 old mice, 20-24 months) were maintained under full SPF conditions and with ad libitum feeding. The study had the approval of the Sydney South West Area Health Service Animal Welfare Committee. Mice at 20-24 months are senescent. Animals were sacrificed withCO2 and livers immediately perfusion-fixed via a 23G needle inserted into the portal vein. Liver tissue was fixed with1% glutaraldehyde/4% para-formaldehyde in PBS (0.1M sucrose).
Drug treatments and dosages (shown superimposed on their corresponding image in FIGS. 1, and 2) were performed by incubating liver cells at 37° C., 5% CO2 for 30 mins using RPMI with or without dissolved drug. All images were taken by two blinded researchers using a SEM at 10,000×, scale bars of 1 μm are shown.
Each data point represents the average±SD of 8 images (as shown in FIGS. 1 and 2), 616-3312 fenestration raw data points were collected per treatment.

Data set [5] relates to isolated LSECs (liver sinusoidal endothelial cells). Kind of data set: SEM of fenestrations in isolated LSECs from young and old mice after 30 min drug treatment (second Example 7). The settings on record: for Diameter / Frequency / Porosity: 30 min; for effect on porosity and fenestration frequency (summary in words): young and old LSECs. The data set is classed as cell-based. The method, then: 3-4 and 18-24 month old male C57/B16 mice were obtained from the Animal Resource Centre in Perth, Western Australia. Animals were housed at the ANZAC Research Institute animal house on a 12 hour light/dark cycle and provided with ad libitum access to food and water. Mice were not fasted prior to euthanasia by a single intraperitoneal injection with 100 mg/kg ketamine and 10 mg/kg xylazine in saline. The study was approved by the Animal Welfare Committee of the Sydney Local Health District and was performed in accordance with the Australian Code of Practice for the care and use of animals for scientific research (AWC 2016/009). All information provided accords with the ARRIVE guidelines.
As described previously (Cogger et al. J e52698, 2015 https://dx.doi.org/10.3791/52698), mouse LSEC isolation was performed by perfusion of the liver with collagenase. Non-parenchymal cells were removed by a two-step Percoll gradient and Kupffer cells were removed by selective adherence to plastic. LSECs (seeded at 0.5×10^6 cells/cm2) were cultured (37° C., 5% CO2) in serum free RPMI-1640 for 3.5 hours before use.
Cells were treated with various agents for 30 minutes to determine effects on fenestrations. All agents were dissolved in serum-free RPMI media. All experiments were performed in triplicate for both young and old mice. Actin was disrupted with 0.5 μg/ml cytochalasin D and lipid rafts were disrupted with 3.6 and 1.8 μg/ml 7-keocholesterol; dosages were selected. […] The serotonergic/phospholipase C pathway was promoted with DOI (0.1 μg/ml) and endothelin receptors were inhibited by bosentan (550, 55 and 5.5 ng/ml) Death receptor 4 was promoted with TRAIL (100, 10. 1, 0.1 and 0.01 ng/ml) and NAD+ was promoted with NMN (5000, 50, 10, 1 and 0.1 μg/ml).
SEM was performed as previous described (Corbin et al J Biol Chem 274: 13729-13732, 1999.). LSECs were fixed in 2.5% glutaraldehyde in 0.1M sodium cacodylate buffer, osmicated, dehydrated in graded ethanol and hexamethyl disilazane, mounted on stubs, sputter coated with platinum and examined using a JEOL 6380 Scanning Electron Microscope (JEOL Ltd, Japan). Images at 10,000× magnification were collected by a blinded observer and used to measure fenestration diameter and LSEC porosity using Image J (NIH, MD, USA). […] Fenestrations less than 30 nm and gaps more than 300 nm were excluded from analysis. Porosity was defined as the percentage of the cell membrane covered with fenestrations. Frequency was defined at the number of fenestrations per […].
Individual specifications of analyses are described in figures legends. All data are presented as mean±SD. Experimental design and analysis were performed in accordance with the APS guidelines described in Curran-Everett and Benos DJ. Adv Physiol Educ 31: 295-298, 2007.

In data set [6] the test system is NAD+. The settings on record: cited from earlier work.
For data set [7] the following is noted: old rats, 500 mg/kg; cited from earlier work.
Data set [8] relates to Intracellular cGMP. Kind of data set: Cyclic GMP ELISA. The format is cell-based, mice. The procedure: Assays for MTT and cGMP were performed as instructed by the kit. Briefly, MTT assays were performed following drug treatments. Cells were washed with PBS and incubated with RPMI media containing […] MTT solution. Cells were incubated at 37° C. for 4 hrs and lysed with […] solubilisation solution, 30 mins colour development followed and measured at 570 nm using a spectrophotometer. cGMP assays were also performed after drug treatments. Cells were washed with PBS and lysed with 0.1M HCl. Following sample collection the sample was acetylated and prepared with kit reagents. Samples were incubated for 18 hrs at 4° C. before examination at 410 nm with a spectrophotometer.
Background: An ELISA detects its analyte on a solid surface through an enzyme-linked reagent.

Data set [9] has as its system LSEC fenestrations. Kind of data set: Acute defenestration by a single intraperitoneal injection of P407. The data set is classed as in vivo. The text has this:
Acute loss of fenestrations, in the absence of other ageing changes, causes dyslipidaemia and insulin resistance Ageing is a complex process leading to impairment of many cellular pathways. To test the hypothesis that age-related loss of fenestrations contributes to dyslipidaemia and insulin resistance, the inventors aimed to evaluate the impact of acute defenestration in the absence of other ageing changes. […] P407 administration caused a 10-fold increase in circulating lipoproteins, especially triglycerides and chylomicron remnants, while preventing the transfer of small chylomicrons across the LSEC.

Setting [10] is: old mice, DOI 0.1 μg/ml, 7KC 9 μM.

Entries after “also recorded” stand apart in the source; their conditions may differ.

Consider `C=C1[C@@H](C)[C@H]2[C@H](Cc3ccccc3)NC(=O)[C@]23[C@H](OC(C)=O)/C=C/[C@@](C)(O)C(=O)[C@@H](C)C/C=C/[C@H]3[C@@H]1O` [Cytochalasin D, cytochalasin D], for which the “effect on fenestrations and lipid rafts” value in data set [1] was “increased fenestrations and decreased rafts”. The “fenestration porosity and diameter (previously reported)” value in data set [2] is listed as “increase fenestration porosity in young mice without any significant effects on fenestration diameter”. Besides, the entries for the “actin changes with drug treatments (dSTORM)” value in [3] and in [3] (listed as cytochalasin D) were “Disordered actin structure; also recorded: Dense actin plasma membrane; also recorded: Stress fibres; also recorded: Single isolated fenestrations” and “extensive actin staining of the plasma membrane; also recorded: loss of smooth fibres encircling the cytoplasm”, respectively. The “sieve plate grouping on SEM images” value in data set [4] (old mice) was “greater fenestration sieve plate grouping”. For the same molecule, the “change in fenestration porosity” value in data set [4] (setting [10]) is recorded as “increased porosity”; in data set [4] (young mice, DOI 0.1 μg/ml, 7KC 9 μM), “increased porosity”. Also, the “change in fenestration frequency” value in [4] (setting [10]) and in data set [4] (young mice) was “increased” each time. For the same molecule, in data set [4], the “sieve plates and fenestration density on SEM images” value was “promoted increased fenestration density and maintained sieve plate fenestration clustering”. Besides, the “fenestrations in LSECs from old mice” value in data set [5] (old mice) is given as “increased fenestrations”. For the same molecule, the Diameter is recorded as 117.04 ± 9.26 nm in data set [5] (old mice, 0.5 μg/ml) and 126.78 ± 10.68 nm in data set [5] (young mice, 0.5 μg/ml). Further, the Frequency in data set [5] (old mice, 0.5 μg/ml) was determined as 3.39 ± 1.07 no/area; in [5] (young mice, 0.5 μg/ml), 4.57 ± 0.51 no/area. Besides, the Porosity amounted to 3.82 ± 1.01% in [5] (old mice, 0.5 μg/ml) and 6.05 ± 0.62 % in data set [5] (young mice, 0.5 μg/ml). In data set [5], the “effect on porosity and fenestration frequency (summary in words)” value was “significantly increased frequency but not porosity in young and old LSECs”. For the same molecule, the “Change in Porosity, Young” value in data set [5] (young mice, 0.5 μg/ml) is on record as “↑ (ns)”. The molecule also registered an increase in porosity in data set [5] (young mice, not significant (P=0.08)) of 33%.

In the case of `NC(=O)c1ccc[n+]([C@@H]2O[C@H](COP(=O)([O-])O)[C@@H](O)[C@H]2O)c1` [NMN, nicotinamide mononucleotide], the “insulin action and secretion” value in data set [6] (diet and age induced type 2 diabetic mice models, similar dosages continuously for 7 days) was “improve insulin action and secretion”. For the same molecule, the “NAD+” value in [6] (female mice, 15 mins after single intraperitoneal injection of 500 mg/kg) is recorded as “Elevated NAD+”. For the same molecule, in [3], the “actin changes with drug treatments (dSTORM)” value was “loss of smooth fibres encircling the cytoplasm; also recorded: disordered, dense actin staining in the plasma membrane and clustering of actin within the cytoplasm; also recorded: Individual fenestrations; also recorded: Disordered actin structure; also recorded: Actin clusters; also recorded: Gap formations”. Further, in [4], the “diameter of fenestrations observed on SEM images” value is listed as “Increased diameter of fenestrations”; the “sieve plates and fenestration density on SEM images” value is “promoted increased fenestration density and maintained sieve plate fenestration clustering”. Moreover, in data set [4] (old mice), the “sieve plate grouping on SEM images” value is given as “greater fenestration sieve plate grouping”. In addition, in data set [4] (old mice, 50 μg/ml), the fenestration diameter was 133.4±0.9 nm, the fenestration frequency was found to be 4.4±1.6 number/μm^2 and the fenestration porosity amounted to 6.6±2.2%. Further, the “peak frequency in histogram of fenestration diameter” value in data set [4] (old mice, bin range of 101-125 nm) was 24%. In data set [4] (young mice, 5 mg/ml), this molecule registered a fenestration frequency of 5.9±0.1 number/μm^2 and a fenestration porosity of 9.1±2.0%. In data set [5], the gap formation entry is listed as “Gap formation was apparent”; the “effect on porosity and fenestration frequency (summary in words)” value is “significant increases in porosity and fenestration frequency in both young and old LSECs”. In addition, the “fenestration porosity after treatment” value in data set [5] (LSECs from young mice, increase from 4.6%) was 8.1%. Moreover, in data set [5] (old mice), the average fenestration diameter stood at 132±2 nm. In [5] (old mice, 50 pg/ml), this molecule returned an increase in frequency of 2.25 fold and an increase in porosity of 2.5 fold. For the same molecule, in [5] (old mice, 50 μg/ml), the Diameter came to 132.12 ± 2.28 nm, the Frequency turned out to be 3.95 ± 1.35 no/area and the Porosity was found to be 5.92 ± 1.94 %. In data set [5] (old mice, 5000 μg/ml), the Diameter was determined as 139.05 ± 11.97 nm, the Frequency turned out to be 3.39 ± 0.60 no/area and the Porosity is listed as 5.55 ± 1.75 %. The “dose response on fenestration porosity (words)” value in [5] (young mice) was “broad range”. In data set [5] (young mice, 50 μg/ml), the Diameter is given as 127.68 ± 8.19 nm, the Frequency came to 4.53 ± 0.58 no/area and the Porosity was 6.08 ± 1.00%. In data set [5] (young mice, 5000 μg/ml), this molecule had a Diameter of 130.48 ± 13.21 nm, a Frequency of 5.53 ± 0.58 no/area and a Porosity of 8.05 ± 2.23 %. The “shift in frequency distribution of fenestration diameter” value in data set [5] (young mice, NMN 5000 μg/ml, 7-ketocholesterol 3.6 μg/ml) was “an increase in 30-100 nm and 226-500 nm fenestrations with a reduction in 126-200 nm fenestrations”. In data set [7], the glucose tolerance entry is “improved glucose tolerance” and the toxicity entry is reported as “non-toxic”. In addition, in [8], the “change of intracellular cGMP” value is recorded as “no changes”.

With poloxamer 407 [P407], the “increase in circulating lipoproteins” value in [9] (especially triglycerides and chylomicron remnants) was determined as 10 fold. The “passage of insulin across the LSEC” value in [9] (in vivo) was “prevented the passage of insulin across the LSEC”. Moreover, the loss of fenestrations in data set [9] (within 24 hours of a single intraperitoneal injection) was 30-80%.
